# Reference: paper PMC314469, “Protein Interaction Networks by Proteome Peptide Scanning” (PLoS Biology, 2004)
# Test system: Myo5 SH3 domain
# Assay: SPOT analysis of cellulose-bound peptides (WISE), Myo5 SH3 domain (Dataset S4)
# Type: binding, Saccharomyces cerevisiae
# Conditions: SPOT analysis of cellulose-bound 14-mer yeast proteome peptides, Myo5 SH3 domain; normalized value; mean where the peptide was synthesized more than once
row,Sequence,The normalized value in BLU units [BLU]
1,TLHELGVPITPIAF,118.6
2,GPIIHPGPEPPRYD,205.1
3,NETKLKFPTLPEVP,254.7
4,SAFPYVFPLPPWIP,12966.5
5,RPPSHSAPYIPRSS,47448.0
6,TASQLQNPPPPPST,168.2
7,HATLYWAPVSPLKS,151.3
8,PSRSKSNPILPIMR,522.7
9,AEAYLVTPEEPAKN,39.6
10,KTVDKGLPMIPTYV,76.8
11,SPKFLNSPDLPERT,182.8
12,FLRTMAQPTDPKDQ,256.6
13,ELAEFTDPSCPVSE,188.9
14,RLSLLRSPKAPDAH,442.3
15,KAGSFGAPSSPTSG,123.7
16,LAIRLCWPPAPVTL,154.7
17,EAFKLPKPWSPNSH,141.0
18,DTYARNNPDFPPQN,138.5
19,VELHFPKPEDPACI,14.9
20,VLLPLRLPEIPPKG,1072.4
21,VPSAFTAPPVPTKK,358.2
22,LLQSLRLPTTPTER,124.6
23,SKYAKLDPSTPVSL,457.3
24,EPEPLMSPVPPSSA,215.2
25,LPTALLSPLRPSLC,115.0
26,GPLLLTVPELPEAD,162.3

# Same assay, conditions: SPOT analysis of cellulose-bound peptides probed with Myo5 SH3 domain; normalized value
row,Sequence,"The normalized value in BLU units (SPOT analysis, Myo5 SH3) [BLU]"
1,SENYLVKPTIPGTT,61.5
2,FASQLRKPRAPMRN,459.9
3,PLFGLSIPKTPTLK,121.7
4,YLLELPDPLIPNDV,162.7
5,KFLIHNEPIDPNDR,121.7
6,TLPPLSSPMNPNGH,252.3
7,LPFMYLLPRFPSHI,454.8
8,SLFPLKTPISPGTS,239.2
9,QPQAYHLPGNPYST,187.4
10,AADSHAIPVDPPSY,37.9
11,AFHFWRPPIAPAEM,1961.3
12,SAYYLGLPVTPEDM,215.1
13,QFSPMDDPKSPTPM,121.0
14,KPSVMKLPPSPKQP,380.5
15,KPPSYPSPAQPPKS,11899.6
16,QPTNFQYPPPPFGQ,224.1
17,AAYDHAEPVQPEDA,146.1
18,KESKFGTPEKPLSD,249.8
19,YFKNMSNPKIPATK,127.8
20,NPLYWLLPSHPYTI,165.0
21,TFRDMDLPQHPVIH,188.2
22,SPKPFSKPQEPVKA,359.1
23,AANAHISPPVPGPA,28.6
24,AELFLGIPIFPGAS,36.7
25,AAPKHAPPPVPNET,110580.8
26,TLIEYMGPAPPKGS,133.3

# Same assay, conditions: SPOT analysis of membrane-bound peptides, Myo5 SH3 domain; normalized value (see methods)
row,Sequence,The normalized value in BLU units [BLU]
1,KTSTKAQPAEPQAE,166.8
2,PPPPRRGPAPPPPP,15026.4
3,YDLTRFLPNHPGGQ,80.6
4,TNSVKATPVPPTLA,168.0
5,IAVTRSIPRGPDKN,157.9
6,CNRARYLPQNPDII,243.9
7,DEALRYCPDAPIVL,127.1
8,TDLGKDIPFFPSSE,146.5
9,ATVVKNCPGDPELF,76.2
10,GYNPKTVPFVPISG,108.5
11,GFLSKKVPNTPVVV,71.3
12,ELDTKTIPELPFCM,53.2
13,KEFFRLTPNQPVGL,43.8
14,TTTYKSRPDRPKPV,309.3
15,PELAKNSPLAPIKK,125.2
16,EIPSKDHPYDPEKD,51.8
17,VSKAKLQPAKPQFT,252.3
18,LGPLKYAPHLPFSK,427.6
19,VRSKRLFPVRPMAT,503.5

# Same assay, conditions: SPOT analysis of membrane-synthesized peptides probed with Myo5 SH3 domain; normalized value
row,Sequence,"The normalized value in BLU units (SPOT analysis, Myo5 SH3) [BLU]"
1,FKVYRWNPDEPSAK,99.0
2,GDEERFLPNRPHYE,125.8
3,APVVKSEPSLPRMR,241.2
4,GKDHRLAPNGPGMH,217.5
5,AVGGKWEPGNPIAI,78.4
6,KKVIRNYPGHPEGT,417.8
7,KKNPKKSPMGPQGA,1007.5
8,EEEAKSVPPIPADQ,29.4
9,LKHTKNKPKNPDTA,406.0
10,WFDLKGLPRQPEPL,101.7
11,ITRARYMPQDPNIV,190.2
12,LSFDRPPPLTPEKN,174.4
13,TSISRISPQDPEAK,194.2
14,RLVNKLLPPHPFAD,289.2
15,FGTAKILPEEPSNT,153.4
16,QWSKRIMPYIPGPV,295.5
17,DNELKDEPEPPNLI,179.2
18,YTYSRNEPVIPTKP,209.5
19,LFDEKVKPQIPQLR,89.2
20,LKDNRLLPSWPKRG,518.0
21,VFVEKSKPTYPGTE,96.4
22,SERRKALPKEPKKL,200.0
23,VVNEKEVPAEPETQ,100.0
24,LITDKEYPVRPAYT,136.3
25,VKATKWPPKLPEIQ,57.4
26,HSTPKPLPPVPALS,143.5
27,MDKFRIPPKSPNIE,222.0
